In ChEMBL document CHEMBL1201862, “PubChem BioAssay data set” (2004):
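Protocol summary: plate cells (96-well), add compound at 5 concentrations, incubate 48 h, interpolate endpoints linearly. Here, GI50 denotes the concentration required for 50% inhibition of growth.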 The source made the active and inactive calls. Cut-off read from the data, not from the text of the source: active = GI50 up to about 1.1 µM and inactive = higher.

Tests used:
Assay in all cases: growth of human tumour cells (NCI), 48 h
ACHN = test system: ACHN
U-251 = test system: U-251
SF-268 = test system: SF-268
SF-295 = test system: SF-295
Malme-3M = test system: Malme-3M
UACC-257 = test system: UACC-257
HCT-15 = test system: HCT-15
A498 = test system: A498
SK-MEL-28 = test system: SK-MEL-28
NCI-H522 = test system: NCI-H522
DU-145 = test system: DU-145
EKVX = test system: EKVX
PC-3 = test system: PC-3
SNB-75 = test system: SNB-75
MDA-MB-435 = test system: MDA-MB-435
SK-MEL-5 = test system: SK-MEL-5
MDA-N = test system: MDA-N
MOLT-4 = test system: MOLT-4
SF-539 = test system: SF-539
MDA-MB-231 = test system: MDA-MB-231

Row | Structure (SMILES) | GI50 (ACHN) | GI50 (U-251) | GI50 (SF-268) | GI50 (SF-295) | GI50 (Malme-3M) | GI50 (UACC-257) | GI50 (HCT-15) [µM] | GI50 (A498) | GI50 (SK-MEL-28) | GI50 (NCI-H522) | GI50 (DU-145) | GI50 (EKVX) | GI50 (PC-3) | GI50 (SNB-75) | GI50 (MDA-MB-435) | GI50 (SK-MEL-5) | GI50 (MDA-N) | GI50 (MOLT-4) | GI50 (SF-539) | GI50 (MDA-MB-231)
1 | CC(=O)N(CCc1ccccc1)C(C)(C#N)c1ccccc1 (stereo not given) | > 100 µM (inactive) | > 100 µM (inactive) | > 100 µM (inactive) | > 100 µM (inactive) | > 100 µM (inactive) | > 100 µM (inactive) | > 100 | > 100 µM (inactive) | > 100 µM (inactive) | > 100 µM (inactive) | > 100 µM (inactive) | > 100 µM (inactive) | > 100 µM (inactive) | > 100 µM (inactive) | > 100 µM (inactive) | > 100 µM (inactive) | > 100 µM (inactive) | > 100 µM (inactive) | > 100 µM (inactive) | > 100 µM (inactive)
2 | O=C1CCC(c2ccccc2)=NN1c1nc2ccccc2s1 | 29.9 µM (inactive) | 29.4 µM (inactive) | 27.2 µM (inactive) | 25.7 µM (inactive) | 32.2 µM (inactive) | 27.2 µM (inactive) | 29.6 | 30.1 µM (inactive) | 40.2 µM (inactive) | 24.5 µM (inactive) | 22.9 µM (inactive) | 30.8 µM (inactive) | 26.1 µM (inactive) | 22.3 µM (inactive) | 23.3 µM (inactive) | 20.4 µM (inactive) | 27.9 µM (inactive) | 28 µM (inactive) | 24.5 µM (inactive) | 20.9 µM (inactive)
3 | CC(=O)O[C@H]1C#C/C=C\C#CC[C@@H]2C(=O)N(C(=O)OC(C)(C)C)[C@@H]12 | 4 µM (inactive) | 17.7 µM (inactive) | 16.8 µM (inactive) | 21.3 µM (inactive) | 7.87 µM (inactive) | 28.4 µM (inactive) | 13.6 | 33.4 µM (inactive) | 71.4 µM (inactive) | 12.8 µM (inactive) | 19.9 µM (inactive) | 85.7 µM (inactive) | > 67.3 µM (inactive) | 21.5 µM (inactive) | 71.6 µM (inactive) | 18.2 µM (inactive) | 39.4 µM (inactive) | 0.199 µM (active) | 1.67 µM (inactive) | 55.3 µM (inactive)
4 | CCCCCCCC(=O)O[C@H]1[C@H]2[C@@H](CC1(C)C)C(=O)[C@]13O[C@H]1C(=O)[C@]1(CO1)[C@]23C | 2 µM (inactive) | 7.83 µM (inactive) | 6.01 µM (inactive) | 15.8 µM (inactive) | 3.29 µM (inactive) | 2.85 µM (inactive) | 2.96 | 9.16 µM (inactive) | 3.38 µM (inactive) | 1.3 µM (inactive) | 14.8 µM (inactive) | 3.66 µM (inactive) | 17 µM (inactive) | 23.4 µM (inactive) | 24.2 µM (inactive) | 4.06 µM (inactive) | 8.95 µM (inactive) | 0.251 µM (active) | 6.84 µM (inactive) | 25.5 µM (inactive)
5 | O=[N+]([O-])c1ccc(O)c(/C=N/NC(=S)N2CCCCC2)c1 | 1.84 µM (inactive) | 3.53 µM (inactive) | 2.45 µM (inactive) | 3.01 µM (inactive) | 1.64 µM (inactive) | 7.16 µM (inactive) | 1.39 | 9.12 µM (inactive) | 3.71 µM (inactive) | 3.52 µM (inactive) | 3.83 µM (inactive) | 2.42 µM (inactive) | 7.48 µM (inactive) | 4.22 µM (inactive) | 7.43 µM (inactive) | 3.7 µM (inactive) | 8.26 µM (inactive) | 1.34 µM (inactive) | 6.82 µM (inactive) | 5.89 µM (inactive)
